# Measurements published in patent US4670460A, “Inhibiting lipoxygenase with pyrazolone derivatives” (Bayer Aktiengesellschaft, priority 1983, dated 1987).
# How the values were obtained:
# [1] = Antithrombotic action (prophylaxis of thromboses); type: in vivo; details: dose increased 100 times in comparison with nafazatrom
# lipoxygenase [2] = target: T1, lipoxygenase (Homo sapiens, UniProt P09917); assay: Inhibition of LTB4 biosynthesis (lipoxygenase-inhibiting action) in human PMN leucocytes stimulated with ionophor A 23187; type: cell-based; details: 0.25 h; for inhibition at 10 µg/mL: concentration 10^-5 g/ml; for inhibition at 1 µg/mL: concentration 10^-6 g/ml
# T1 construct: endogenous in cells; host or cells: human PMN leucocytes isolated from heparinized blood
# T1 sequence (P09917 1-674): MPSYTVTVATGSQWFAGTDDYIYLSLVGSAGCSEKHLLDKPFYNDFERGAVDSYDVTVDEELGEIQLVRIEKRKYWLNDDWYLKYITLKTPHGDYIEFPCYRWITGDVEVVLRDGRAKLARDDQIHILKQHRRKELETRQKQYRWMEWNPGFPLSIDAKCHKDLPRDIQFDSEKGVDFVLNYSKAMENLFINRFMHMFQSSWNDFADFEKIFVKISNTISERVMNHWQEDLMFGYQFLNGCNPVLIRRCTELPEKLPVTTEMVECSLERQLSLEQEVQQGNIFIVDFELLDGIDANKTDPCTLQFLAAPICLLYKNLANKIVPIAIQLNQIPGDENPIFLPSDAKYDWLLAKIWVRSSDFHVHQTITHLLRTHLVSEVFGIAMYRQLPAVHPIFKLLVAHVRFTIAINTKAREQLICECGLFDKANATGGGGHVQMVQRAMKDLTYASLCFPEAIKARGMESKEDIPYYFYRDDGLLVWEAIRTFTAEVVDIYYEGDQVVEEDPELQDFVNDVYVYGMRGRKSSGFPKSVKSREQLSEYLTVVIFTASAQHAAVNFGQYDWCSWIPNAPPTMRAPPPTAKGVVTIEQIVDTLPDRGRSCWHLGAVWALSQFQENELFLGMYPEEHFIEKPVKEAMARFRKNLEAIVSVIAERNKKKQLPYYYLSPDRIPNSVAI
# Protocol: The human PMN leucocytes (>95%) used in the present example were obtained from heparinized complete blood by dextran sedimentation and subsequent density gradient separation (Ficoll-Paque) (compare A. Boyum, Scand. J. Immunol., 5, Suppl. 5, 9, 1976).
# 2×10^7 cells/ml were suspended in Dulbecco phosphate buffer containing Ca^2+ and were incubated with radioactively labelled arachidonic acid and the calcium ionophor A 23187 in the presence or absence of lipoxygenase inhibitor. After 15 minutes, the labelled lipoxygenase products were extracted from the acidified incubation medium and were separated by thin layer chromatography using a mobile phase mixture suitable for the leukotrienes (5-HETE-LTB4) (compare B. Jakschik et al., Biochem. Biophys. Res. Commun., 102, 624, 1981).
# The distribution of the activity amongst the various metabolites was measured by a thin layer scanner. It is a measure of the lipoxygenase-inhibiting action of a test substance at a certain concentration.
# The lipoxygenase metabolites were also additionally determined independently by means of high pressure liquid chromatography. This method enables the endogenous arachidonic acid metabolism to be studied with the aid of UV detection of the leukotrienes. In this method, the cells were treated as described above, with the exception that no radioactively labelled arachidonic acid was added exogenously. The high pressure liquid chromatography was carried out on Lichrosorb RP-18 (5 μm) columns. The mobile phase was methanol/water/glacial acetic acid 69/31/0.01. The flow rate was 1 ml/minute. Leukotriene B4 was determined at 280 nm and the HETE derivatives were determined at 232 nm, in each case by means of UV absorption.
# leucocytes = assay: Leucocyte stickiness, hamster cheek pouch venule; type: in vivo, Syrian golden hamsters
# Protocol: The number of leucocytes which pass a certain section of a vessel serves as a simple model for measuring the stickiness of leucocytes (Bray, M. A. et al., Prostaglandins 22, 213 (1981)). The number of leucocytes counted will be greater, the lower the stickiness of the cells.
# The pyrazolone derivatives described below were investigated in this model.
# Male Syrian golden hamsters (80-100 g) were anaesthetized with Nembutal (i.p.; 60 mg/kg). After insertion of a PE 10 catheter into the a. femoralis, the animal was laid on a Duling dissecting platform (MVR 5, 423 (1973)) and the right cheek pouch was withdrawn by inserting a Q-Tip. It was carefully drawn into the envisaged part of the platform, stretched and fixed.
# From the start of the dissection, 5 ml/minute of Superfusat flowedover the prepared cheek pouch. The temperature of the solution was 36° C. While treating the vessels with care, the upper layer tissue was separated longitudinally and folded back to the side. Under about 200-fold magnification, an area of about 1 cm^2 of connective tissue was carefully exposed. The animal was placed on the object stand of a microscope, together with the dissecting platform. A thermocouple was inserted into the left cheek pouch. The body temperature of the animal was thus monitored and kept at 36±0.3° C. with the aid of an IR lamp (250 watt).
# The leucocyte stickiness was measured at about 500-fold magnification. A venule (30-40 μm .phi.) was selected in the exposed area. The number of leucocytes per unit time (minutes) which migrate past a certain section of this vessel were counted.
# Intra-arterial administration of the pyrazolone derivatives in 1% strength aqueous Tylose suspension led to the following results: […]
# lipoxygenase [3] = details: Busse et al. 1982; cited from earlier work
# [4] = system: endogenous prostacyclin (PGI2) from the vascular endothelium; details: Vermylen 1979, Chamone 1981, McIntyre and Salzman 1981; cited from earlier work
# [5] = system: 15-hydroxyprostaglandin dehydrogenase; details: Wong and McGiff 1982; cited from earlier work
SMILES,inhibition at 10 µg/mL (lipoxygenase [2]) [%],inhibition at 1 µg/mL (lipoxygenase [2]) [%],also measured
O=C1CC(Cc2ccccc2)=NN1CCOc1ccc2ccccc2c1 [Compound 3-benzyl],,,Effect in the prophylaxis of thromboses [1]: no effect can be detected
Cc1cc(OC(=O)c2ccc(Cl)cc2)n(C(C)c2ccc(Cl)c(Cl)c2)n1 (stereo not drawn),80,,
CC1=NN(CCOc2ccc(Cl)c(C)c2)C(=O)C1,100,43,
CCC1C(=O)N(CCOc2ccc3c(Br)cccc3c2)N=C1C (stereo not drawn) [Compound 5],,,Duration of action (leucocytes; dose 1 mg/kg intra-arterial): 30 to 50 min; Increase in Leucocyte number (%) (leucocytes; dose 1 mg/kg intra-arterial): 200%
Cc1cc(OC(=O)c2ccc3ccccc3c2)n(C(C)c2ccc(Cl)c(Cl)c2)n1 (stereo not drawn),46,,
CCC1C(=O)N(CCOc2ccc3c(Br)cccc3c2)N=C1C (stereo not drawn) [drawing 20],100,100,
CC1=NN(CCc2cccc3ccccc23)C(=O)C1 [Compound 6],,,Duration of action (leucocytes; dose 1 mg/kg intra-arterial): 20 to 30 min; Increase in Leucocyte number (%) (leucocytes; dose 1 mg/kg intra-arterial): 30%
CCCC1=NN(CCOc2ccc3ccccc3c2)C(=O)C1 [Compound 3-n-propyl],,,Effect in the prophylaxis of thromboses [1]: no effect can be detected
CC(C)C1=NN(CCOc2ccc3ccccc3c2)C(=O)C1 [Compound 3-isopropyl],,,Effect in the prophylaxis of thromboses [1]: no effect can be detected
CC1=NN(CCOc2ccc3ccccc3c2)C(=O)C1C1C(=O)N(CCOc2ccc3ccccc3c2)N=C1C (stereo not drawn),50,,
"CC1=NN(CCOc2ccc3ccccc3c2)C(=O)C1 [nafazatrom, 3-methyl-1-[2-(2-naphthyloxy)-ethyl]-2-pyrazolin-5-one]",,,"Inhibition of lipoxygenase activity (lipoxygenase [3]): inhibits lipoxygenase activity; Stimulation of endogenous prostacyclin (PGI2) from the vascular endothelium [4]: can act as a stimulator; Blockade of 15-hydroxyprostaglandin dehydrogenase, the PGI2-degrading enzyme [5]: blocks"
CC1=NN(CCOc2ccccc2-c2ccccc2)C(=O)C1 [Compound 4],,,Duration of action (leucocytes; dose 0.1 mg/kg intra-arterial): 40 min; Increase in Leucocyte number (%) (leucocytes; dose 0.1 mg/kg intra-arterial): 35%
CCCCC1C(=O)N(CCOc2ccc3c(Br)cccc3c2)N=C1C (stereo not drawn),100,68,
CC1=NN(CCOc2ccc3ccccc3c2)C(=O)C1C (stereo not drawn) [drawing 22],100,83,
"CC1=NN(CCOc2ccc3ccccc3c2)C(=O)C1C (stereo not drawn) [3,4-dimethyl derivative]",,,Effect in the prophylaxis of thromboses [1]: no effect can be detected
CCC1=NN(CCOc2ccc3c(Br)cccc3c2)C(=O)C1C (stereo not drawn),100,100,

# The next lines start with results.
inhibition at 10 µg/mL (lipoxygenase [2]) [%],inhibition at 1 µg/mL (lipoxygenase [2]) [%],SMILES,also measured
100,58,"CC1=NN(CCOc2ccc3ccccc3c2)C(=O)C1 [drawing 34, reference compound]",
100,81,O=C1CC(c2ccccc2)=NN1CCCc1ccccc1,
100,58,CC1=NN(CCc2cccc3ccccc23)C(=O)C1 [drawing 28],
80,,O=C1CC(CO)=NN1CCOc1ccc2ccccc2c1,
100,71,O=C1CC(C2CCCCC2)=NN1CCCc1ccccc1,
100,93,CCCCCCC1C(=O)N(CCOc2ccc3ccccc3c2)N=C1C (stereo not drawn),
93,40,COCC1=NN(CCOc2ccc3ccccc3c2)C(=O)C1,
82,36,CC(=O)OCC1=NN(CCOc2ccc3ccccc3c2)C(=O)C1,
100,,CC1=NN(C(C)c2ccc(Cl)c(Cl)c2)C(=O)C1Cc1ccccc1 (stereo not drawn),
100,75,CC1=NN(CCOc2ccccc2-c2ccccc2)C(=O)C1 [drawing 18],
100,100,CC(C)CC1=NN(CCOc2ccc3ccccc3c2)C(=O)C1,
100,62,CC1=NN(CCOc2cccc3ccccc23)C(=O)C1,
